Measurements published in ChEMBL document CHEMBL3745650, “Anti-inflammatory properties of quebecol and its derivatives” (Bioorg Med Chem Lett, 2016).

Assays:
[1] = Cytotoxicity against PMA-differentiated human U937 macrophages assessed as reduction in cell viability after 24 hrs by MTT assay; format: cell-based; conditions: u-937, 24 h
[2] = Antiinflammatory activity in PMA-differentiated human U937 cells assessed as inhibition of LPS-stimulated IL-6 secretion at 500 uM preincubated for 2 hrs followed by LPS-stimulation measured after 24 hrs by ELISA relative to control; format: functional; conditions: U-937
[3] = Antiinflammatory activity in PMA-differentiated human U937 cells assessed as inhibition of LPS-stimulated IL-6 secretion at 250 uM preincubated for 2 hrs followed by LPS-stimulation measured after 24 hrs by ELISA relative to control; format: functional; conditions: U-937
[4] = Antiinflammatory activity in PMA-differentiated human U937 cells assessed as inhibition of LPS-stimulated IL-6 secretion at 125 uM preincubated for 2 hrs followed by LPS-stimulation measured after 24 hrs by ELISA relative to control; format: functional; conditions: U-937
[5] = Antiinflammatory activity in PMA-differentiated human U937 cells assessed as inhibition of LPS-stimulated IL-6 secretion at 62.5 uM preincubated for 2 hrs followed by LPS-stimulation measured after 24 hrs by ELISA relative to control; format: functional; conditions: U-937
[6] = Antiinflammatory activity in PMA-differentiated human U937 cells assessed as inhibition of LPS-stimulated IL-8 secretion at 500 uM preincubated for 2 hrs followed by LPS-stimulation measured after 24 hrs by ELISA relative to control; format: functional; conditions: U-937
[7] = Antiinflammatory activity in PMA-differentiated human U937 cells assessed as inhibition of LPS-stimulated IL-8 secretion at 250 uM preincubated for 2 hrs followed by LPS-stimulation measured after 24 hrs by ELISA relative to control; format: functional; conditions: U-937
[8] = Antiinflammatory activity in PMA-differentiated human U937 cells assessed as inhibition of LPS-stimulated IL-8 secretion at 125 uM preincubated for 2 hrs followed by LPS-stimulation measured after 24 hrs by ELISA relative to control; format: functional; conditions: U-937
[9] = Antiinflammatory activity in PMA-differentiated human U937 cells assessed as inhibition of LPS-stimulated IL-8 secretion at 62.5 uM preincubated for 2 hrs followed by LPS-stimulation measured after 24 hrs by ELISA relative to control; format: functional; conditions: U-937
[10] = Antiinflammatory activity in PMA-differentiated human U937 cells assessed as inhibition of LPS-stimulated IL-1beta secretion at 500 uM preincubated for 2 hrs followed by LPS-stimulation measured after 24 hrs by ELISA relative to control; format: functional; conditions: U-937
[11] = Antiinflammatory activity in PMA-differentiated human U937 cells assessed as inhibition of LPS-stimulated IL-1beta secretion at 250 uM preincubated for 2 hrs followed by LPS-stimulation measured after 24 hrs by ELISA relative to control; format: functional; conditions: U-937
[12] = Antiinflammatory activity in PMA-differentiated human U937 cells assessed as inhibition of LPS-stimulated IL-1beta secretion at 125 uM preincubated for 2 hrs followed by LPS-stimulation measured after 24 hrs by ELISA relative to control; format: functional; conditions: U-937
[13] = Antiinflammatory activity in PMA-differentiated human U937 cells assessed as inhibition of LPS-stimulated IL-1beta secretion at 62.5 uM preincubated for 2 hrs followed by LPS-stimulation measured after 24 hrs by ELISA relative to control; format: functional; conditions: U-937
[14] = Antiinflammatory activity in PMA-differentiated human U937 cells assessed as inhibition of LPS-stimulated TNF-alpha secretion at 500 uM preincubated for 2 hrs followed by LPS-stimulation measured after 24 hrs by ELISA relative to control; format: functional; conditions: U-937
[15] = Antiinflammatory activity in PMA-differentiated human U937 cells assessed as inhibition of LPS-stimulated TNF-alpha secretion at 250 uM preincubated for 2 hrs followed by LPS-stimulation measured after 24 hrs by ELISA relative to control; format: functional; conditions: U-937
[16] = Antiinflammatory activity in PMA-differentiated human U937 cells assessed as inhibition of LPS-stimulated TNF-alpha secretion at 125 uM preincubated for 2 hrs followed by LPS-stimulation measured after 24 hrs by ELISA relative to control; format: functional; conditions: U-937
[17] = Antiinflammatory activity in PMA-differentiated human U937 cells assessed as inhibition of LPS-stimulated TNF-alpha secretion at 62.5 uM preincubated for 2 hrs followed by LPS-stimulation measured after 24 hrs by ELISA relative to control; format: functional; conditions: U-937
[18] = Antiinflammatory activity in human U937-3xkB-luc cells assessed as inhibition of LPS-induced NFkappaB activation at 100 uM preincubated for 30 mins followed by LPS-stimulation measured after 6 hrs by luciferase assay relative to control; format: functional; conditions: U-937
[19] = Antiinflammatory activity in human U937-3xkB-luc cells assessed as inhibition of LPS-induced NFkappaB activation at 20 uM preincubated for 30 mins followed by LPS-stimulation measured after 6 hrs by luciferase assay relative to control; format: functional; conditions: U-937
[20] = Antiinflammatory activity in human U937-3xkB-luc cells assessed as inhibition of LPS-induced NFkappaB activation at 5 uM preincubated for 30 mins followed by LPS-stimulation measured after 6 hrs by luciferase assay relative to control; format: functional; conditions: U-937

| Compound | Activity [1] [µM] | inhibition at 500 µM [2] [%] | inhibition at 250 µM [3] [%] | inhibition at 125 µM [4] [%] | inhibition at 62.5 µM [5] [%] | inhibition at 500 µM [6] [%] | inhibition at 250 µM [7] [%] | inhibition at 125 µM [8] [%] | inhibition at 62.5 µM [9] [%] | inhibition at 500 µM [10] [%] | inhibition at 250 µM [11] [%] | inhibition at 125 µM [12] [%] | inhibition at 62.5 µM [13] [%] | inhibition at 500 µM [14] [%] | inhibition at 250 µM [15] [%] | inhibition at 125 µM [16] [%] | inhibition at 62.5 µM [17] [%] | inhibition at 100 µM [18] [%] | inhibition at 20 µM [19] [%] | inhibition at 5 µM [20] [%] |
| --- | --- | --- | --- | --- | --- | --- | --- | --- | --- | --- | --- | --- | --- | --- | --- | --- | --- | --- | --- | --- |
| CCOC(=O)C(c1ccc(O)c(OC)c1)C(c1ccc(O)c(OC)c1)c1ccc(O)c(OC)c1 (centres undefined) | 125 | 99.9 | 99.8 | 89.9 | 4.8 | 99.9 | 95 | 94.9 | 0 | 91.4 | 10.9 | 1.2 | 0 | 100 | 100 | 15.7 | 8.5 | 74.7 | 31.2 | 24 |
| CCOC(=O)Cc1ccc(O)c(OC)c1 | > 1000 | 0 | 0 | 0 | – | 0 | 0 | 0 | – | 0 | 5.7 | 2.7 | – | 6.9 | 1.1 | 0.1 | – | 14.6 | 21.8 | 13.6 |
| COc1cc(C(O)C(=O)O)ccc1O (centres undefined) | > 1000 | 0 | 0 | 0 | – | 0 | 0 | 0 | – | 7.2 | 8 | 7.4 | – | 0 | 4.6 | 0 | – | 16.3 | 5.7 | 0 |
| COc1cc(CCO)ccc1O | > 1000 | 0 | 0 | 0 | – | 0 | 0 | 0 | – | 11.3 | 17.4 | 24.4 | – | 0 | 5.2 | 6 | – | 8.3 | 2.6 | 0 |
| COc1cc(CC(=O)O)ccc1O [HOMOVANILLIC ACID] | > 1000 | 0 | 0 | 0 | – | 0 | 0 | 0 | – | 3.6 | 5.7 | 5.2 | – | 0 | 0 | 0 | – | 22.9 | 16.3 | 24 |
